Test results published in PMC10313671, “Accelerating the prediction and discovery of peptide hydrogels with human-in-the-loop” (Nature Communications, 2023).
Where a SMILES comes first, the peptide text is derived from it.

Key:
[1] = Transmission electron microscope (negative staining) of peptide assemblies; conditions: for Morphology: TEM, negative staining with uranyl acetate, 120 kV
Protocol: We used the negative staining technique to observe the morphologies formed by peptides. A micropipette was used to load 10 μL of sample solution to a carbon-coated copper grid, and we used a piece of filter paper to remove the excess solution. After rinsing the grid with the deionized water, we used uranyl acetate to stain the sample for 1 minute and then rinsed the grid with deionized water again.

[2] = Optical images of aqueous peptide solutions at four concentrations; format: physicochemical; conditions: pH = 7.5
Protocol: [7. What are the pH values of the hydrogels formed? […]
the captions of proper figures.]
We thank the reviewer for the comment. […]
the information of pH values of tetrapeptide hydrogels/solutions in the captions of Fig. 3a and d. […]
Insets: […]
optical images of corresponding solution/suspension (pH=7.5). […]
[8. Is it surprising that both QQQQ and EEEE form suspension at 120 mM? Any explanation from either ML perspective or thermodynamic prospective?]
We thank the reviewer for the comment. From the ML or simulation perspective, both QQQQ and […]
hydrophilicity and lack of sufficient directional hydrogen bonds captured in simulation and prediction. However, the formation of suspension in real experiments indicate the formation of aggregates, and we attribute this to the thermodynamic factor of concentration.
Actually, we also found this phenomenon on RRRR (also contains four charged amino acids), and […]
We compared the optical images of QQQQ and EEEE at four concentrations (30, 60, 90, and 120 […]
transparency decreased (60, 90, and 120 mM) due to the formation of aggregates. As for EEEE, at […]
suspension. We tend to think that as the concentration of charged tetrapeptides increases, the hydrogen bond between peptide molecules and water is strengthened, resulting in the formation of […]
aggregates at high concentrations. […]
description in Lines 214-216 of this main text.
Fig. R1 The optical images of QQQQ and EEEE aqueous solutions at four concentrations (30, 60, […]
with different sizes in an aqueous solution, qualitatively consistent with the morphologies obtained in MD simulations except for RRRR (Fig. 3d, right column), showing different levels of aggregation. Taking the TEM result of RRRR together, we attributed this to the thermodynamic factor of concentration. Finally, we presented a summary of the assembled morphologies of all […]
tetrapeptides tended to form fibers, sheets, or hybrid morphology (70%) in an aqueous solution. […]
[…]
(1 picture or pasted object on this page, not shown here)

[3] = Peptide hydrogel formation, vial-inverting method; format: physicochemical; parameters: key to EXP / GELATION: 0: no hydrogel; 1: hydrogel; conditions: for State: pH 6.5-8.5 (1 N NaOH), ultrasonication, standing 48 h; for Concentration: concentration at which the state was recorded: lowest of 30, 60, 90, 120 mM that gave a gel, 120 mM for non-gelating peptides; for GELATION: 1 = hydrogel, 0 = no hydrogel
Summary of the method: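 Gelation judged by vial inversion, a non-flowing self-supporting sample counting as hydrogel, after 48 h standing. Peptide in water at 30 mM first, escalating to 60, 90 and 120 mM if no gel; pH set to 6.5–8.5 by stepwise 1 N NaOH, each step sonicated briefly.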

C57BL/6 mice = format: in vivo, C57BL/6 J mice; conditions: serum day 21
[4] = 120 mM peptide (highest tested) in ultrapure water, vial-inverting method, precipitate, sol, suspension = no gel
[5] = peptide concentration 120 mM, vial-inverting method

Row | SMILES | Morphology ([1]; line of the table gives 120 mM) | appearance of aqueous solution (optical image) ([2]; 30 mM) | appearance of aqueous solution (optical image) ([2]; 60 mM) | appearance of aqueous solution (optical image) ([2]; 90 mM) | appearance of aqueous solution (optical image) ([2]; 120 mM) | State [3, 4] | Concentration [3] | GELATION [3, 5] | Morphology ([1]; line of the table gives 60 mM) | morphology by TEM (in words) ([1]; aqueous solution or hydrogel, negative staining) | increase of RBD-specific IgG2b response compared with the commercial aluminum adjuvant group (C57BL/6 mice; C57BL/6 mice) | production of RBD-specific IgG1 (in words) (C57BL/6 mice; C57BL/6 mice, similar to the aluminum group) | RBD-specific IgG2c titers (in words) (C57BL/6 mice; C57BL/6 mice, surpassing aluminum group or control group) | enhancement of the generation of IgG compared with the RBD group (C57BL/6 mice; […], C57BL/6 mice) | endpoint titre of RBD-specific IgG in serum (C57BL/6 mice; mean of n = 6 mice, s.c. immunization day 0, 7, 14 with 15 μg RBD alone, with 12.5 μL aluminum adjuvant or 60 mM YAWF hydrogel, […]) | State ([3]; 60 mM peptide in ultrapure water, vial-inverting method, no gel at 30 mM) | GELATION ([3]; peptide concentration 60 mM, vial-inverting method) | hydrogel formation (in words) ([3]; vial-inverting method, representative hydrogels pH between 7.0 to 7.5)
1 | NC(=O)CC[C@H](NC(=O)[C@H](CCC(N)=O)NC(=O)[C@H](CCC(N)=O)NC(=O)[C@@H](N)CCC(N)=O)C(=O)O [QQQQ] (H-QQQQ-OH) | sheet | clear solution | solution transparency decreased | solution transparency decreased | solution transparency decreased | suspension | 120000 µM | 0 | – | – | – | – | – | – | – | – | – | –
2 | C[C@H](NC(=O)[C@@H](N)Cc1ccc(O)cc1)C(=O)N[C@@H](Cc1c[nH]c2ccccc12)C(=O)N[C@@H](Cc1ccccc1)C(=O)O [YAWF] (H-YAWF-OH) | – | – | – | – | – | – | 60000 µM | – | fibre | nanofibrous network | around 9.7 fold | significantly enhanced | high IgG2c titers | 41.6 fold | 58615.2 | gel | 1 | can form hydrogels
3 | N[C@@H](CCC(=O)O)C(=O)N[C@@H](CCC(=O)O)C(=O)N[C@@H](CCC(=O)O)C(=O)N[C@@H](CCC(=O)O)C(=O)O [EEEE] (H-EEEE-OH) | sheet | uniform and clear solutions | uniform and clear solutions | uniform and clear solutions | opaque suspension | suspension | 120000 µM | 0 | – | – | – | – | – | – | – | – | – | –
